The structures appear in SMILES notation. Entries after “also recorded” stand apart in the source; their conditions may differ. Marks after values point to notes of the source that are not given here.

This is an account of results in paper PMC10196870, “Structural insights into the substrate recognition of serine palmitoyltransferase from Sphingobacterium multivorum” (The Journal of Biological Chemistry, 2023).

The target in series [1] is T1, Sphingobacterium multivorum SPT (Sphingobacterium multivorum, UniProt A7BFV6).
T1 construct: harboring the plasmid that express the full length of S. multivorum SPT; made in house; host or cells: Escherichia coli BL21 (DE3) pLysS
As to the kind of experiment: TLC analysis of LCB formation from amino acids by SPT (ninhydrin). It is filed as biochemical. The following applies: 200 mM amino acid, 1 mM PalCoA, 100 μM SPT, pH 7.5, 60 min, 37 °C.
Description: Reaction products were extracted with solvents and separated by TLC. […] Each LCB product was quantified by the fluorescence intensity based on the standard curve obtained by using the corresponding authentic compound.

Series [2] has as its target T1, Sphingobacterium multivorum SPT. Description: Spectroscopic titration of SPT with amino acids (dissociation constants, external aldimine formation). In kind it is binding. The note with it: 10 μM SPT, pH 7.5, 25 °C. As for the experimental part:
Next, binding of the amino acids to the S. multivorum SPT was examined by spectroscopic titration.
Figure 3 Spectroscopic analysis of the reaction of the Sphingobacterium multivorum SPT with L-Ala or L-Thr.A, the UV/vis absorption spectra of SPT (10 μM) in the presence of 800 mM L-Ala were measured at time intervals of 10 min for 500 min. Each line numbered 1 to 12 corresponds to the spectrum at 0, 10, 20, 30, 40, 50, 60, 80, 90, 110, 150, and 500 min, respectively, after SPT was mixed with L-Ala. […] B, spectroscopic titration of SPT with L-Ala. Absorbance at 420 nm in the presence of 0, 50, 100, 200, 400, and 600 mM L-Ala at 0 min was measured, and apparent molar absorptivities at 420 nm were plotted against L-Ala concentrations. […] C, absorption spectra of SPT (10 μM) in the presence of 0, 1.3, 3.7, 7.4, 12.2, 18.1, 24.9, 32.7, 41.3, and 51.6 mM L-Thr (lines 1–10, respectively). […] SPT, serine palmitoyltransferase.
The titration assay was carried out by using 10 μM SPT in 100 mM potassium phosphate and 0.1 mM EDTA, pH 7.5, at 25 °C. The changes of the 422 nm absorption intensities of SPT upon addition of amino acids were plotted against the final concentrations of the amino acids, and the Kd values were calculated by fitting to a hyperbolic saturation curve using Igor Pro 6.37. software. UV/vis spectra of SPT were recorded with a Hitachi U-3310 spectrophotometer.

Series [3] shares this target. As to the kind of experiment: Steady-state kinetic analysis of SPT (LCB production from amino acid and PalCoA, quantified by TLC fluorescence). It is filed as biochemical. The note with it: 1 mM PalCoA; for Kmapp / kcatapp: mean ± SD. The procedure:
The assay was performed as follows; 200 mM of amino acid (glycine, L-Ala, L-Ser, L-Hse, or L-Thr) was incubated with 1 mM PalCoA and 100 μM SPT in 100 μl of 100 mM potassium phosphate, pH 7.5, for 60 min at 37 °C. The reactions were terminated by addition of the equal volume of 2 N ammonia. Lipids were extracted by successive addition and mixing of 750 μl of chloroform/methanol (1:2, v/v), 250 μl of chloroform, and 250 μl of 1% KCl. Phases were separated by centrifugation, and the organic phase was recovered. The aqueous phase was reextracted with 200 μl of chloroform, and, after centrifugation, the organic phase was combined with the organic phase from the first extraction. The organic phase was washed with water/chloroform/methanol (47:48:3, v/v), dried, and suspended in chloroform/methanol (2:1, v/v). The extracted lipids were resolved by normal-phase TLC on Silica Gel 60 high-performance TLC plates (Merck) with chloroform/methanol/2 N ammonia (40:10:1, v/v) or chloroform/methanol/triethanol amine (95:5:10, v/v) and visualized by spraying with ninhydrin reagent followed by gentle heating. For the quantitative analysis, the UV-fluorescence intensities of the reaction products on TLC plates were visualized by a Fusion chemiluminescence imaging system using a UV-light box and analyzed by a FUSION Capt software (VILBER; https://www.garvan.org.au/research/capabilities/molecular-genetics/ documents/fusion_manual_2016.pdf).
Steady-state kinetic parameters were determined by varying the concentrations of the amino acid substrate in the presence of 1 mM PalCoA in 100 μl of 100 mM potassium phosphate, pH 7.5, at 37 °C. The concentration of SPT and the incubation time were 1 μM and 10 min for L-Ser; 5 μM and 10 min for L-Hse; 20 μM and 30 min for L-Ala; and 100 μM and 120 min for Gly. The reaction termination, lipid extraction, TLC analysis, and quantification of the reaction products on TLC plates were described above. The apparent velocities (min^–1) versus amino acid concentrations (mM) plots were fitted to the Michaelis–Menten equation, v = Vmax[S]/(Km+[S]), by nonlinear regression using the Igor Pro 6.37 (https://www.wavemetrics.com/forum/news-and-announcements/igor-pro-637-released). software (Wave Matrix Inc.) to determine the apparent kinetic parameters, kcatapp and Kmapp , of SPT for each amino acid substrate.
The reactions were carried out in the presence of 1 mM PalCoA as described in Experimental procedures. Apparent rate constants, obtained by dividing the rate of the LCB production by the concentration of the enzyme, were plotted against concentrations of amino acid substrate, L-Ser (A), L-Hse (B), L-Ala (C), or glycine (D). The plots were fitted to the equation of the Michaelis–Menten mechanism, v = Vmax[S]/(Km+[S]), by nonlinear regression using the software Igor Pro (ver 6.37, WaveMetrics, Lake Oswego, OR), and the Kmappand kcatapp of SPT for each amino acid substrate were calculated. Solid line represents a theoretical curve based on the above equation. Each data point is a mean with the error bar showing standard deviation from at least three independent experiments.

Series [4] has the same target. Description: UV/vis time course of conversion of PLP and L-Ala to PMP and pyruvate by SPT (abortive transamination). It is filed as biochemical. As for the experimental part: Next, binding of the amino acids to the S. multivorum SPT was examined by spectroscopic titration. […] Therefore, the absorption at 420 nm just after SPT was mixed with L-Ala was measured and plotted against concentrations of L-Ala (Fig. 3B), and the Kd value for L-Ala was estimated as 65 ± 10 mM (Table 1). For the other amino acids, only spectral changes corresponding to the external aldimine formation between PLP and the amino acids were observed, and side reactions such as PMP formation were not detected.
Figure 3 Spectroscopic analysis of the reaction of the Sphingobacterium multivorum SPT with L-Ala or L-Thr.A, the UV/vis absorption spectra of SPT (10 μM) in the presence of 800 mM L-Ala were measured at time intervals of 10 min for 500 min. Each line numbered 1 to 12 corresponds to the spectrum at 0, 10, 20, 30, 40, 50, 60, 80, 90, 110, 150, and 500 min, respectively, after SPT was mixed with L-Ala. […] The lines represent theoretical fits to a single-exponential equation ( y=A×e^−k⋅t ), where k is 0.029 ± 0.00024 min^–1. B, spectroscopic titration of SPT with L-Ala. Absorbance at 420 nm in the presence of 0, 50, 100, 200, 400, and 600 mM L-Ala at 0 min was measured, and apparent molar absorptivities at 420 nm were plotted against L-Ala concentrations. […]

Setting [5] is: 100 mM potassium phosphate, 0.1 mM EDTA, absorption at 422 nm, mean ± SD.
[6] abbreviates: 100 mM potassium phosphate pH 7.5, 37 °C.
Setting [7] is: reaction mixture supplemented with 0.1 mM PLP, pH 7.5, 37 °C.

T1 sequence (A7BFV6 whole entry): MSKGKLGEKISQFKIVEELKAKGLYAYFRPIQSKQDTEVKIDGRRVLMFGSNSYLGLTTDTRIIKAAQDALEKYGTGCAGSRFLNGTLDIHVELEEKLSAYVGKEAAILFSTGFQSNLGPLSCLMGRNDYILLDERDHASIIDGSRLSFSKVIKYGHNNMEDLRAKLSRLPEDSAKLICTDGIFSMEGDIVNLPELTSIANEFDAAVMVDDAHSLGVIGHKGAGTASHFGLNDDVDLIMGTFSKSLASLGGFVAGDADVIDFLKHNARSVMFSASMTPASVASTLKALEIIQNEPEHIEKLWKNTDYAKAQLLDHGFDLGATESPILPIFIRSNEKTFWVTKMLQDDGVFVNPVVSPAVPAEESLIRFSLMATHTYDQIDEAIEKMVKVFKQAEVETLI

The term Kd denotes the equilibrium constant for the complex coming apart. As to `NCC(=O)O` [Gly, glycine], the “LCB formation (reaction product on TLC)” value in series [1] is listed as “converted to corresponding LCBs”. In addition, the affinity in series [2] (setting [5]), expressed as Kd, was 71 ± 5.5 mM. Moreover, in series [3], the “Kmapp, fold larger than that for L-Ser” value is reported as 21 fold and the “kcatapp, fold smaller than that for L-Ser” value is recorded as 36,000 fold. In series [3] (setting [6]), the Kmapp stood at 77 ± 8.1 mM and the kcatapp is recorded as 0.008 ± 0.002 min^–1. For the same compound, in series [3] (pH 7.5, 37 °C), the “kcatapp/Kmapp (apparent catalytic efficiency)” value (from here on “kcatapp/Kmapp”) was 0.0001 min^–1 mM^–1.
For `C[C@H](N)C(=O)O` [L-Ala, L-alanine], the “LCB formation (reaction product on TLC)” value in series [1] was “converted to corresponding LCBs”. For the same compound, in series [2] (absorption intensity at 424 nm immediately after SPT was mixed with L-Ala (text: 420 nm)), the Kd amounted to 65 ± 10 mM. Also, in series [3] (pH 7.5, 37 °C), the “kcatapp/Kmapp” value worked out at 0.0037 min^–1 mM^–1. Moreover, in series [3] (setting [7]), the Kmapp is reported as 110 ± 9.0 ^c mM and the kcatapp is 0.42 ± 0.011 ^c min^–1. For the same compound, the “half-life τ1/2 of conversion of PLP and L-Ala to PMP and pyruvate” value in series [4] (SPT (10 μM) incubated with 800 mM L-Ala) is on record as 24.0 ± 0.2 min. Further, in series [4] (SPT (10 μM), 800 mM L-Ala), the “rate constant k of single-exponential change in absorption at 420 nm and 328 nm” value came out at 0.029 ± 0.00024 min^–1.
Take `N[C@@H](CCO)C(=O)O` [L-Hse, L-homoserine]: the “LCB formation (reaction product on TLC)” value in series [1] is listed as “converted to corresponding LCBs”. Also, the equilibrium dissociation constant (Kd) in series [2] (setting [5]) was determined as 3.6 ± 0.2 mM. Also, in series [3] (setting [6]), the Kmapp is recorded as 82 ± 14 mM and the kcatapp worked out at 4.5 ± 0.28 min^–1. Further, in series [3] (pH 7.5, 37 °C), the “kcatapp/Kmapp” value is 0.055 min^–1 mM^–1.
With `N[C@@H](CO)C(=O)O` [L-Ser, L-serine], the Kd in series [2] (setting [5]) was 0.45 ± 0.05 mM. Moreover, in series [3] (setting [6]), the Kmapp is 3.6 ± 0.87 mM and the kcatapp is reported as 13 ± 1.0 min^–1. The “kcatapp/Kmapp” value in series [3] (pH 7.5, 37 °C) stood at 3.6 min^–1 mM^–1.
As to `C[C@@H](O)[C@H](N)C(=O)O` [L-Thr, L-threonine], the “LCB formation (reaction product on TLC)” value in series [1] is recorded as “not detected; also recorded: nonproductive ligand”. The compound also showed a Kd in series [2] (setting [5]) of 8.2 ± 1 mM. In addition, the “Kmapp, fold larger than that for L-Ser” value in series [3] is 23 fold.
With `NC(CO)(CO)CO` [Tris, tris(hydroxymethyl)aminomethane], the Kd in series [2] (setting [5]) is 40 ± 5.6 mM.
